What was measured:
Format in all cases: physicochemical
[1] = Determination of particle flowability (Schulze shear cell tester); settings: flow factor coefficient, pre-consolidation pressure 2000 Pa
Experimental: Particle flowability is characterized using a Schulze shear cell tester with a pre-consolidation pressure of 2000 Pa. The powder sample is contained in an annular shear cell. A vertically acting force is applied to the lid of the flow cell allowing an adjustable normal stress to be applied. The shear cell is slowly rotated and the torque necessary to prevent the cover from rotating is recorded. The measured shear stress that is recorded is the shear stress required for the powder to move or flow against itself. From a plot of the shear stress versus normal force, the flowability or FFC is determined

[2] = Determination of particle size distribution by laser diffraction; settings: for x10 / x90: cumulative volume distribution (undersized); for x50: median particle size
Experimental: Laser diffraction particle size analysis is employed to determine the x10, x50 and x90 values. The procedure uses Fraunhofer laser diffraction theory to calculate the particle size distribution. The analysis is performed with a Malvern Mastersizer 2000 equipped with a Hydro 2000S wet module. A filtered (0.22 μm) solution composed of 0.35% (v/v) sorbitan monooleate (SPAN® 80) in hexanes and saturated with semagacestat is used as the dispersant. The parameters used in the analysis are as follows: sample refractive index—1.555, sample absorption—0.1, dispersant refractive index—1.37, result calculation model—General purpose, normal sensitivity, sample measurement time—12 seconds, background measurement time—12 seconds, and stirrer/pump speed—2700 rpm. A dry sample is added to the Hydro 2000S wet module with sonication on at 100%, until the obscuration is between 10 and 20%. The sample is sonicated for 12 s and stirred for a total of 2 min (including sonication) prior to the analysis. Two separate assays are typically run; the average values are reported.

[3] = Determination of specific surface area (BET isotherm, nitrogen)
Experimental: Specific surface area is determined from BET isotherm measurements using nitrogen as the absorbed gas.

SMILES	FFC [1]	x10 [2] [μm]	x90 [2] [μm]	x50 [2] [μm]	SSA [3] [m^2/g]
CC(C)[C@H](O)C(=O)N[C@@H](C)C(=O)N[C@@H]1C(=O)N(C)CCc2ccccc21 [Example 1, Crystalline (2S)-2-hydroxy-3-methyl-N-[(1S)-1-methyl-2-oxo-2-[[(1S)-2,3,4,5-tetrahydro-3-methyl-2-oxo-1H-3-benzazepin-1-yl]amino]ethyl]-butanamide anhydrate Form II]	3.8	14	128	59	0.4
CC(C)[C@H](O)C(=O)N[C@@H](C)C(=O)N[C@@H]1C(=O)N(C)CCc2ccccc21 [Method 2, Crystalline (2S)-2-hydroxy-3-methyl-N-[(1S)-1-methyl-2-oxo-2-[[(1S)-2,3,4,5-tetrahydro-3-methyl-2-oxo-1H-3-benzazepin-1-yl]amino]ethyl]-butanamide anhydrate Form II]	2.0	3.5	54	17	1.1
